Reference: ChEMBL document CHEMBL1143587, “Discovery of S-phase arresting agents derived from noscapine” (J Med Chem, 2005)
Active and inactive are the calls of the source. The rule behind the calls is not given here.

How the values were obtained:
HEK293 [1] = assay: Effect to arrest S-phase on HEK 293 cells at 50 uM was determined; Not significant; format: functional, cell-based; conditions: Homo sapiens
HEK293 [2] = assay: Effect to arrest GI-phase on HEK 293 cells at 10 uM was determined; format: functional, Homo sapiens
HEK293 [3] = assay: Effect to arrest G2/M-phase on HEK 293 cells at 10 uM was determined; format: functional, Homo sapiens
HEK293 [4] = assay: Effect to arrest S-phase on HEK 293 cells at 10 uM was determined; format: functional, Homo sapiens
HEK293 [5] = assay: Effect to arrest S-phase on HEK 293 cells at 25 uM was determined; format: functional, Homo sapiens
HEK293 [6] = assay: Effect to arrest GI-phase on HEK 293 cells at 50 uM was determined; format: functional, Homo sapiens
HEK293 [7] = assay: Effect to arrest GI-phase on HEK 293 cells at 25 uM was determined; format: functional, Homo sapiens
HEK293 [8] = assay: Effect to arrest G2/M-phase on HEK 293 cells at 25 uM was determined; format: functional, Homo sapiens
HEK293 [9] = assay: Effect to arrest S-phase on HEK 293 cells at 50 uM was determined; format: functional, Homo sapiens
HEK293 [10] = assay: Effect to arrest G2/M-phase on HEK 293 cells at 50 uM was determined; format: functional, Homo sapiens
HEK293 [11] = assay: Compound was tested for inhibition of HEK293 proliferation; format: functional, cell-based; conditions: Homo sapiens
HEK293 [12] = assay: Effect to arrest G2/M-phase on HEK 293 cells at 1 uM was determined; format: functional, Homo sapiens
HEK293 [13] = assay: Effect to arrest S-phase on HEK 293 cells at 1 uM was determined; format: functional, Homo sapiens
HEK293 [14] = assay: Effect to arrest GI-phase on HEK 293 cells at 1 uM was determined; format: functional, Homo sapiens

COc1ccc2c(c1-c1ccc(C(C)(C)C)cc1)C(=O)O[C@@H]2[C@H]1c2c(cc3c(c2OC)OCO3)CCN1C was tested, and the Activity (HEK293 [1]) was “inactive”.
COc1ccc2c(c1OCc1csc(C)n1)C(=O)O[C@@H]2[C@H]1c2c(cc3c(c2OC)OCO3)CCN1C gave an Effect (HEK293 [2]) of 28%, an Effect (HEK293 [3]) of 10% and an Effect (HEK293 [4]) of 62%.
With COc1cc2c(c(OC)c1OC)-c1ccc(OC)c(=O)cc1[C@@H](NC(C)=O)CC2 [COLCHICINE] the Effect (HEK293 [2]) was 3%, the Effect (HEK293 [3]) was 83% and the Effect (HEK293 [4]) was 14%.
COc1ccc2c(c1OCc1ccccc1)C(=O)OC2[C@H]1c2c(cc3c(c2OC)OCO3)CCN1C (stereo not given in full) was tested, and the Effect (HEK293 [2]) was 28%, the Effect (HEK293 [5]) was 71% and the Effect (HEK293 [6]) was 23%. It also gave an Effect (HEK293 [7]) of 12%, an Effect (HEK293 [8]) of 15% and an Effect (HEK293 [3]) of 17%. The Effect (HEK293 [9]) was 67%, the Effect (HEK293 [10]) was 10% and the Effect (HEK293 [4]) was 57%. It also gave an EC50 (HEK293 [11]) of 15 µM.
In the case of COc1ccc2c(c1-c1ccc(N(C)C)cc1)C(=O)O[C@@H]2[C@H]1c2c(cc3c(c2OC)OCO3)CCN1C, the Activity (HEK293 [1]) is reported as “inactive”.
For COc1cc(-c2c(OC)ccc3c2C(=O)O[C@@H]3[C@H]2c3c(cc4c(c3OC)OCO4)CCN2C)cc(OC)c1OC, the Activity (HEK293 [1]) was “inactive”.
With COc1ccc2c(c1-c1cc(F)cc(F)c1)C(=O)O[C@@H]2[C@H]1c2c(cc3c(c2OC)OCO3)CCN1C the Activity (HEK293 [1]) was “inactive”.
Work on COc1ccc2c(c1OC)C(=O)O[C@@H]2[C@H]1c2c(cc3c(c2OC)OCO3)CCN1C [NOSCAPINE] yielded an Effect (HEK293 [6]) of 6%, an Effect (HEK293 [9]) of 18% and an Effect (HEK293 [10]) of 76%.
For COc1ccc2c(c1-c1ccsc1)C(=O)O[C@@H]2[C@H]1c2c(cc3c(c2OC)OCO3)CCN1C, the Activity (HEK293 [1]) was “inactive”.
Work on COc1ccc2c(c1OCc1ccsc1)C(=O)O[C@@H]2[C@H]1c2c(cc3c(c2OC)OCO3)CCN1C yielded an Effect (HEK293 [5]) of 62%, an Effect (HEK293 [7]) of 28% and an Effect (HEK293 [8]) of 10%.
Work on COc1cc(COc2c(OC)ccc3c2C(=O)O[C@@H]3[C@H]2c3c(cc4c(c3OC)OCO4)CCN2C)cc(OC)c1OC yielded an Effect (HEK293 [12]) of 11%, an Effect (HEK293 [2]) of 19% and an Effect (HEK293 [6]) of 13%. It also gave an Effect (HEK293 [13]) of 65%, an Effect (HEK293 [3]) of 16% and an Effect (HEK293 [14]) of 24%. The Effect (HEK293 [9]) was 84%, the Effect (HEK293 [10]) was 6% and the Effect (HEK293 [4]) was 65%. For the same compound, the EC50 (HEK293 [11]) was 1.9 µM.
In the case of COc1ccc2c(c1SCc1ccccc1)C(=O)O[C@@H]2[C@H]1c2c(cc3c(c2OC)OCO3)CCN1C, the Effect (HEK293 [2]) is reported as 24%, the Effect (HEK293 [3]) is reported as 11% and the Effect (HEK293 [4]) is reported as 65%.
